In patent publication US20120088698A1, “WATER IN OIL EMULSION, METHOD FOR THE PRODUCTION THEREOF” (CLARIANT FINANCE (BVI) LIMITED, priority 2009, published 2012):
Read-outs that look alike come from different tables or passages of the source.

Assays:
Skelotonema Costatum [1] = experiment: Ecotoxicology, Protocol ISO 10253; details: for EC50: 72 hrs
[2] = Biodegradability, OECD 306 test; details: OECD 306, 28 days
Skelotonema Costatum [3] = details: in vivo

Molecule | EC50 (Skelotonema Costatum [1]) [mg/L] | Degradation (biodegradability) [2] [%] | 48 h NOEC (Artica Tonsa; 48 h) [mg/L] | 48 h LC90 (Artica Tonsa; 48 h, first figure of LC90/100) [mg/L] | 48 h LC100 (Artica Tonsa; 48 h, second figure of LC90/100) [mg/L] | LC50 (Artica Tonsa; 48 hrs) [mg/L] | 72 h EC90 (Skelotonema Costatum [3]) [mg/L] | NOEC@72 h (Skelotonema Costatum [3]) [mg/L] | LC5@10 days (Corophium Volulator; 10 days) [mg/kg] | NOEC @ 10 days (Corophium Volulator; in vivo) [mg/kg] | 72 h EC90 (Skelotonema Costatum [1]; 72 h) [mg/L] | NOEC@72 h (Skelotonema Costatum [1]; 72 h) [mg/L] | NOEC @ 10 days (Corophium Volulator; 10 days) [mg/kg]
CCCCCCCC/C=C\CCCCCCCCN1CC(C(=O)O)CC1=O.NCCO (centres unmarked) [OleylPyCOO-MEA, N-oleyl(pyrrolidine-2-one)-4-carboxylic acid/ethanol amine salt] | 0.44 | 69 | 0.30 | 4.2 | 9.0 | 2.8 | 0.58 | 0.32 | 433 | 160 |  |  | 
N-oleyl(pyrroildine-2-one)-4-carboxylic acid/morpholine distillation residue salt [OleylPyCOO-AmixM] | 1.6 |  |  |  |  |  |  |  |  |  | 3.0 | 0.56 | 524
